From PMC11640089, “JRM-28, a Novel HDAC2 Inhibitor, Upregulates Plasticity-Associated Proteins in Hippocampal Neurons and Enhances Morphological Plasticity via Activation of CREB: Implications for Alzheimer’s Disease” (Cells, 2024) come the findings set out here.

Where two headings read alike, the source gives them in different places.

The term IC50 denotes the concentration needed to halve the response being measured.

One data set relates to SHSY5Y cells. Briefly: TUNEL assay. Type of data set: cell-based, human. The note with it: 24 h, in the presence of DTT. On the procedure:
To assess the effect of JRM-28 on apoptosis in SHS5Y cells, a total of 3 × 10^5 cells suspended in […] of complete neurobasal medium was distributed in each well of a poly-D-lysine-coated eight-well Chamber Slide. After 48 h, cells were treated with 2, 5, 10, 20, 30, and 50 μM of JRM-28 under serum-free conditions and then incubated for an additional 24 h. The TUNEL activity was measured by colorimetric microscopy as directed in the protocol described in DeadEnd™ Colorimetric TUNEL System (Promega, Madison, WI, USA). Hematoxylin staining was adopted to counterstain the slide.

Another data set concerns the target T1, HDAC1 (Homo sapiens, UniProt Q13547).
T1 construct: purchased BPS Bioscience 50051
Briefly: Fluorimetric HDAC inhibition assay, HDAC1. Type of data set: biochemical. The note with it: reduced with DTT. On the procedure: (§1) The inhibition of HDAC1, 2, 3, and 6 by JRM-28 was fluorometrically measured using the HDAC Fluorogenic Assay Kit (Catalog# 50034) by BPS bioscience. Purified recombinant human HDAC1 (Cat# 50051), HDAC3 (Cat# 50003), and HDAC6 (Cat# 50056) were also obtained from BPS Bioscience. The enzyme inhibition assay was performed according to the manufacturer’s protocol. […] Purified recombinant HDAC2 (supplied with the fluorogenic kit) was diluted to 6 ng/µL (5 µL/well with the supplied HDAC assay buffer). HDAC 1, 3, and 6 were also diluted to the optimized concentration (5 µL/well) with the HDAC assay buffer. The activity of JRM-28 was measured along with DTT control and DMSO as blank. After adding 5 µL of the diluted HDAC enzymes in designated wells, the 96-well plate (supplied with the kit) was incubated at 37 °C. Then, the reaction was initiated by adding 5 µL of diluted HDAC substrate to each well, followed by another incubation at 37 °C for 30 min. Next, 50 µL of the developer reagent was added to each well and incubated at room temperature for another 15 min. Finally, fluorescence was measured by a microplate absorbance spectrophotometer (PerkinElmer Enspire 2300 Multilabel Multimode Microplate Reader) with an excitation at λ = 485 nm and detection at λ = 528 nm.

The test system of the next data set is iPSC-derived AD neurons. Kind of data set: NMDA/AMPA-driven calcium entry assay in iPSC-derived AD neurons. Type of data set: cell-based, human. As to the method:
Mouse primary hippocampal neurons and AD neurons were loaded with Fluo4-fluorescence conjugated calcium dye (Invitrogen Molecular Probes, Cat #F10471) and incubated at 37 °C for 60 min, as described before. Briefly, fluorescence excitation and emission spectra were recorded in a Perkin–Elmer Victor X2 Fluorimetric Spectrometer (Versiti Blood Center, Wauwatosa, WI, USA) in the presence of 50 μM NMDA and AMPA solutions. The recording was performed with 100 repeats at 0.1 ms intervals. The oscillogram was generated with the help of Parkin Elmer 2030 software that was connected to the Victor X2 calcium recorder unit. The real-time calcium noise graph was generated as a kinetic chart plotted on a linear scale.

For data set [1], the system named is HDAC2. Briefly: HDAC2 immunoblot and immunofluorescence in SHSY5Y cells. Type of data set: cell-based, human. On the procedure: Immunofluorescence analysis was performed as described earlier. Briefly, cells cultured on coverslip contained in six-well plates (Lab-Tek II) were fixed with 4% paraformaldehyde for 20 min followed by two rinses in TBST. Samples were incubated in a 1:1 solution of TBST and blocking buffer containing rabbit anti-NR2A (1:250), anti-GluR1 (1:250), ant-HDAC2 (1:250), anti-CREB (1:250), and anti-MAP2 (1:250) for 2 h at 37 °C. After three washes in PBST (15 min each), slides were further incubated with FIT-C and TRIT-C-conjugated secondary antibodies. For negative controls, a set of culture slides was incubated under similar conditions with secondary antibodies and without the primary antibodies (Table 3). The samples were mounted and observed under an Accuscope fluorescent microscope. The images were captured and merged in CaptaVision^TM imaging software.
Immunoblot analysis was carried out as described earlier. Briefly, SHSY5Y neuronal cell homogenates were electrophoresed by 4–12% Tris-Glycine gradient gel, proteins were transferred onto a 0.45 μm nitrocellulose membrane, and the protein band was visualized with Odyssey Sa infrared scanner after immunolabeling with primary antibodies followed by infrared fluorophore-tagged secondary antibody (Licor Biosciences, Lincoln, NE, USA).
For orientation: A western blot detects proteins with antibodies after separation by electrophoresis.

Data set [2] has as its target HDAC2 (Homo sapiens, UniProt Q92769). Kind of data set: HDAC2 inhibition assay, luminometric method (HDAC-Glo I/II). Type of data set: biochemical. The arrangement: purchased BPS Bioscience 50002. The note with it: for IC50: HDAC2 0.5 nM, read-out: IC50 HDAC2 inhibition (luminescence). As to the method: HDAC2 inhibition assay was performed by either the luminometric or fluorimetric method applying the following procedures. The table (Table 1) represents the details of different HDAC proteins and antibodies used in all biochemical assays.
HDAC2 inhibition assay was performed by HDAC-Glo™ I/II Assays and Screening System (Catalog# G6420, Promega Corporation, Madison, WI, USA) by the luminometric method according to the manufacturer’s protocol. […] The HDAC-2 inhibition assay was performed as previously described to determine IC values. In brief, the purified HDAC2 was diluted in HDAC assay buffer (provided with the HDAC-Glo™ I/II Assays and Screening System) to the same concentration based on their calculated molar mass. […] Next, 10 µL of JRM-28 after serial dilution was added to 10 µL of diluted HDAC2 in such a way that the final HDAC2 concentration was 0.5 nM in each well of a 384-well microplate (Greiner, Kremsmünster, Austria). After 30 min of incubation, 20 µL of the HDAC-Glo substrate/developing reagent was added to each well according to the manufacturer’s instructions. The 384-well plate was then agitated on an orbital shaker for the mixing of components in each well for another 30 min at room temperature. Finally, luminescence was measured using a POLARstar Omega plate reader (BMG Labtech, Ortenberg, Germany).

A further data set addresses T2, HDAC3 (Homo sapiens, UniProt O15379).
T2 construct: purchased BPS Bioscience 50003
Kind of data set: Fluorimetric HDAC inhibition assay, HDAC3. Type of data set: biochemical. The note with it: reduced with DTT. As to the method: as §1

Chain of HDAC2 (Homo sapiens, UniProt Q92769) (Q92769 whole entry): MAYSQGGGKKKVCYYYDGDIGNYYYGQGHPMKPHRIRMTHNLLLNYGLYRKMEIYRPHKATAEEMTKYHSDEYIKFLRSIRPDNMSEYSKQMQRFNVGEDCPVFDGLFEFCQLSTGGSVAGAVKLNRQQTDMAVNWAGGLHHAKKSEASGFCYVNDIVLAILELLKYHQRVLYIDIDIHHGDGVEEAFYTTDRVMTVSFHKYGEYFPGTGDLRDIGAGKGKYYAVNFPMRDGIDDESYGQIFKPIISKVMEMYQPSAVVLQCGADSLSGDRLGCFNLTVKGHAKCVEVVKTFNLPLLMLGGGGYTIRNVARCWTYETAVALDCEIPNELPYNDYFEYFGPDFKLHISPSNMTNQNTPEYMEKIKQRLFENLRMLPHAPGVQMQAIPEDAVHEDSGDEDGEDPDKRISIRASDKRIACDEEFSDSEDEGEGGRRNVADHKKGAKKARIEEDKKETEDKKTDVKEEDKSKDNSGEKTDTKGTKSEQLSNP
T1 sequence (Q13547 whole entry): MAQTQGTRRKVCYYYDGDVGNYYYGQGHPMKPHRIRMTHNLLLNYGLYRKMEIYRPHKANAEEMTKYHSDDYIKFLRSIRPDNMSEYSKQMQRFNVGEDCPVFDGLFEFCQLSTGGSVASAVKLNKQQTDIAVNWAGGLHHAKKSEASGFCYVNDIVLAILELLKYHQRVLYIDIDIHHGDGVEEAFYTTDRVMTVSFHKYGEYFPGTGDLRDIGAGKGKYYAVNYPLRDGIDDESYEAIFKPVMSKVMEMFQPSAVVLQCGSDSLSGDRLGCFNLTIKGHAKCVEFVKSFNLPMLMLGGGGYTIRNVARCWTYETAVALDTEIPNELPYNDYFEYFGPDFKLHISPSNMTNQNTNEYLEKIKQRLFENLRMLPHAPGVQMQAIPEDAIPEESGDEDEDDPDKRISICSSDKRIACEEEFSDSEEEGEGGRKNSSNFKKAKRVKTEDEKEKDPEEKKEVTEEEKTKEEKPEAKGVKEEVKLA
T2 sequence (O15379 whole entry): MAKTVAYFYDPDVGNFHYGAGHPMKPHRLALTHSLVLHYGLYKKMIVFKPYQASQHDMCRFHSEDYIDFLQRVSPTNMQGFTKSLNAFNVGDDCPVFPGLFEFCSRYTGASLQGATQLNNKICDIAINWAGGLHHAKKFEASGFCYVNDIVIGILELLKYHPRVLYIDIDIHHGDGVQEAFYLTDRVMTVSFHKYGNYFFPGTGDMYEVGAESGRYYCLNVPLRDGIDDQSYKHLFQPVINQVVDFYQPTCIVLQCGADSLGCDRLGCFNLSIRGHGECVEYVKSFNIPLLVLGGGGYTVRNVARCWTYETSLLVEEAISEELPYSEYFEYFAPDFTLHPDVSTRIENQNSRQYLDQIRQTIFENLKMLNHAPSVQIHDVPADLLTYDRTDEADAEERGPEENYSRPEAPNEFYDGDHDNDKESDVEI
T2 sequence (Q9Y618 395-489 partner limits assumed): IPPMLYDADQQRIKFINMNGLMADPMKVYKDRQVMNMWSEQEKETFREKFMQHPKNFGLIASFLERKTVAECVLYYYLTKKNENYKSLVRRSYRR

Take `CN(C(=O)CC(O)/C=C/CCSS(=O)(=O)CC/C=C/C(O)CC(=O)N(C)c1ccccc1)c1ccccc1` (stereo not drawn) [JRM-28, S-((E)-5-hydroxy-7-(methyl(phenyl)amino)-7-oxohept-3-en-1-yl) (E)-5-hydroxy-7-(methyl(phenyl)amino)-7-oxohept-3-ene-1-sulfonothioate]: the TUNEL cytotoxicity entry in the data set on SHSY5Y cells (20 µM) is reported as “caused nuclear condensation”; in the data set on SHSY5Y cells (30 µM) it was “induced significant cell death”; in the data set with SHSY5Y cells (50 µM), “induced significant cell death”; with SHSY5Y cells (lower doses up to 10 µM), “did not induce any cell death”. The IC50 against HDAC1 is 0.351 µM; at HDAC2 [2] (in the presence of DTT (reduced)), 0.28 µM; at HDAC2 [2] (without DTT (non-reduced dimer)), 54.9 µM; against HDAC3, 0.279 µM. The “Hill coefficient HDAC1 (fluorimetric)” value on HDAC1 (listed as JRM-28 (JRM-28a+28b)) was −4.582. For the same molecule, the AMPA-driven calcium influx entry with iPSC-derived AD neurons (5 µM) is “strong AMPA-driven calcium influx”. Moreover, in the data set on iPSC-derived AD neurons (5 µM), the NMDA-driven calcium entry entry was “significantly high”. In the data set with iPSC-derived AD neurons (2, 5, and 10 µM tested), the “concentration of maximum NMDA-driven calcium entry” value was determined as 10 µM. The “NMDA- and AMPA-induced calcium entry after creb siRNA” value in the data set with iPSC-derived AD neurons (creb siRNA-transfected AD neurons) was “strongly attenuated”. The “nuclear translocation of HDAC2 (immunocytochemistry)” value in the data set with HDAC2 [1] (5 µM) is on record as “significantly arrested the nuclear translocation of HDAC2”. Also, the “HDAC2 expression in nuclei (dual IF with CREB)” value in the data set on HDAC2 [1] (5 µM, SHSY5Y cells) is “significantly attenuated the expression of HDAC2 in the nuclei”. The “HDAC2 expression (immunoblot)” value in the data set on HDAC2 [1] (2, 5, and 10 µM, 24 h, versus control) is listed as “did not upregulate the expression of HDAC2”. Besides, the “increase of HDAC2 inhibitory effect by addition of DTT” value at HDAC2 [2] (with DTT versus without DTT) is approximately 200 fold. Besides, the “Hill coefficient HDAC3 (fluorimetric)” value on HDAC3 (listed as JRM-28 (JRM-28a+28b)) is on record as −4.663.
